Data set [1] is described as follows: Assay (III) ThT fibrillation assay for physical stability. Type of data set: physicochemical. In outline:
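Freshly prepared formulations, pH-adjusted, with 1 μM ThT; four or eight replicates incubated at 37 °C under 960 rpm orbital shaking. Fluorescence (ex 444/em 485 nm) read every 20 min; […]. Peptide concentration measured by RP-HPLC before and after the run.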

A further data set concerns food intake. The data set is described as follows: Assay (I) efficacy testing on appetite (food intake), ad libitum fed rat model. It is filed as in vivo, Sprague Dawley (SD) rats. From the text: In the following examples reference is made to the following Assays: • Assay (I)— Experimental protocol for efficacy testing on appetite using an ad libitum fed rat model • ASSAY (II)a—Functional assay—Human calcitonin and amylin receptor assay • ASSAY (II)b—Functional assay—Rat calcitonin and rat amylin receptor assays • ASSAY (III)—ThT fibrillation assays for the assessment of physical stability of protein formulations • ASSAY (IV)—Determination of solubility • ASSAY (V)—Determination of binding to the human amylin receptor • ASSAY (VI)—Determination of the binding to the rat amylin receptor • ASSAY (VII)—Determination of binding to the human calcitonin receptor • ASSAY (VIII)—Determination of binding to the rat calcitonin receptor • ASSAY (IX)—pK—Determination of T % in mini-pig • ASSAY (X)—pK—Determination of T % in rat ASSAY (I)—Experimental Protocol for Efficacy Testing on Appetite Using an Ad Libitum Fed Rat Model
Sprague Dawley (SD) rats from Taconic Europe, Denmark are used for the experiments. The rats have a body weight 200-250 g at the start of experiment. The rats arrive at least 10-14 days before start of experiment to allow acclimatization to experimental settings. During this period the animals are handled at least 2 times. After arrival rats are housed individually for one week in a reversed light/dark phase (meaning that lights are off during daytime and on during nighttime) […]. Since rats are normally active and eat their major part of their daily food intake during the dark period, rats are dosed in the morning right before lights are turned off. This set-up results in the lowest data variation and highest test sensitivity. The experiment is conducted in the rats' home cages and rats have free access to food and water throughout the acclimatization period and the experiment period. Each dose of derivative is tested in a group of 5-8 rats. A vehicle group of 6-8 rats is included in each set of testing. Rats are dosed once according to body weight with a 0.01-3 mg/kg solution administered intraperitoneally (ip), orally (po) or subcutaneously (sc). The time of dosing is recorded for each group. After dosing, the rats are returned to their home cages, where they then have access to food and water. The food consumption is recorded individually continuously by on-line registration or manually every hour for 7 hours, and then after 24 h and sometimes 48 h. At the end of the experimental session, the animals are euthanised.
The individual data are recorded in Microsoft excel sheets. Outliers are excluded after applying the Grubbs statistical evaluation test for outliers, and the result is presented graphically using the GraphPad Prism program.

Starred links: 1 amine or outer side, 2 acyl side, 3 side chain; linkers in the order of their positions; H or OH if unused. Positions of bridges follow the written chain, without caps; N, C: chain ends. Residues, ends and D or L forms follow the SMILES beside them. Groups on a side chain read outwards from the residue. *: point of attachment. C20 diacid = O=C(O)CCCCCCCCCCCCCCCCCCC(=O)*; γGlu = O=C(O)[C@H](CCC(=O)[*:2])N[*:1]

As to `CC[C@H](C)[C@H](NC(=O)[C@@H]1CCCN1C(=O)CNC(=O)[C@H](Cc1ccccc1)NC(=O)[C@H](CC(N)=O)NC(=O)[C@H](CC(N)=O)NC(=O)[C@H](CO)NC(=O)[C@H](CO)NC(=O)[C@H](Cc1c[nH]cn1)NC(=O)[C@H](Cc1c[nH]cn1)NC(=O)[C@H](CC(C)C)NC(=O)[C@H](Cc1ccccc1)NC(=O)[C@H](CCC(=O)O)NC(=O)[C@H](C)NC(=O)[C@H](CC(C)C)NC(=O)[C@H](CCCNC(=N)N)NC(=O)[C@H](CCC(N)=O)NC(=O)[C@@H](NC(=O)[C@H](C)NC(=O)[C@@H]1CSSC[C@H](NC(=O)[C@H](CCCCN)NC(=O)CC[C@H](NC(=O)CCCCCCCCCCCCCCCCCCC(=O)O)C(=O)O)C(=O)N[C@@H](CC(N)=O)C(=O)N[C@@H]([C@@H](C)O)C(=O)N[C@@H](C)C(=O)N[C@@H]([C@@H](C)O)C(=O)N1)[C@@H](C)O)C(=O)N[C@@H](CC(C)C)C(=O)N1CCC[C@H]1C(=O)N1CCC[C@H]1C(=O)N[C@H](C(=O)N[C@@H](CC(N)=O)C(=O)N[C@H](C(=O)NCC(=O)N[C@@H](CO)C(=O)N[C@@H](Cc1c[nH]cn1)C(=O)N[C@H](C(=O)N[C@@H](Cc1ccc(O)cc1)C(N)=O)[C@@H](C)O)C(C)C)[C@@H](C)O` [Example 55, N-alpha-[(S)-4-Carboxy-4-(19-carboxynonadecanoylamino)butyryl]-[Glu14,His17,His35]-pramlintide] ({C20 diacid-γGlu}-KCNTATCATQRLAEFLHHSSNNFGPILPPTNVGSHTY-NH2; disulfide 2-7 (inferred)), in data set [1] (ThT fibrillation assay), the “ThT pH 4.0 lag time” value was 37 h and the “ThT pH 4.0 lag time (h)” value was determined as 37 h. In addition, the “Food intake reduction 0-24 h 3 nmol/kg (%)” value in the data set with food intake (0-24 h) is reported as 58%. Further, the “Food intake reduction 0-24 h 30 nmol/kg (%)” value in the data set on food intake (0-24 h, 30 nmol/kg) turned out to be 88%. Besides, the “Food intake reduction 24-48 h 3 nmol/kg (%)” value with food intake (24-48 h) came to 40%. Further, the “Food intake reduction 24-48 h 30 nmol/kg (%)” value in the data set on food intake (24-48 h, 30 nmol/kg) amounted to 90%.
With `CC[C@H](C)[C@H](NC(=O)[C@@H]1CCCN1C(=O)CNC(=O)[C@H](Cc1ccccc1)NC(=O)[C@H](CC(N)=O)NC(=O)[C@H](CC(N)=O)NC(=O)[C@H](CO)NC(=O)[C@H](CO)NC(=O)[C@H](Cc1c[nH]cn1)NC(=O)[C@H](CCCNC(=N)N)NC(=O)[C@H](CC(C)C)NC(=O)[C@H](Cc1ccccc1)NC(=O)[C@H](CCC(=O)O)NC(=O)[C@H](C)NC(=O)[C@H](CC(C)C)NC(=O)[C@H](CCCNC(=N)N)NC(=O)[C@H](CCC(N)=O)NC(=O)[C@@H](NC(=O)[C@H](C)NC(=O)[C@@H]1CSSC[C@H](NC(=O)[C@H](CCCCN)NC(=O)CC[C@H](NC(=O)CCCCCCCCCCCCCCCCCCC(=O)O)C(=O)O)C(=O)N[C@@H](CC(N)=O)C(=O)N[C@@H]([C@@H](C)O)C(=O)N[C@@H](C)C(=O)N[C@@H]([C@@H](C)O)C(=O)N1)[C@@H](C)O)C(=O)N[C@@H](CC(C)C)C(=O)N1CCC[C@H]1C(=O)N1CCC[C@H]1C(=O)N[C@H](C(=O)N[C@@H](CC(N)=O)C(=O)N[C@H](C(=O)NCC(=O)N[C@@H](CO)C(=O)N[C@@H](Cc1c[nH]cn1)C(=O)N[C@H](C(=O)N[C@@H](Cc1ccc(O)cc1)C(N)=O)[C@@H](C)O)C(C)C)[C@@H](C)O` [Example 57, N-alpha-[(S)-4-Carboxy-4-(19-carboxynonadecanoylamino)butyryl]-[Glu14,Arg17,His35]-pramlintide] ({C20 diacid-γGlu}-KCNTATCATQRLAEFLRHSSNNFGPILPPTNVGSHTY-NH2; disulfide 2-7 (inferred); C-terminus assumed), the “ThT pH 4.0 lag time” value in data set [1] (Table 8), in data set [1] (Table 9) and in data set [1] (ThT fibrillation assay) was more than 45 h throughout. The “ThT pH 4.0 lag time (h)” value in data set [1] (ThT fibrillation assay) is reported as more than 45 h. Moreover, the “Food intake reduction 0-24 h 3 nmol/kg (%)” value in the data set with food intake (0-24 h) is on record as 17%. The “Food intake reduction 24-48 h 3 nmol/kg (%)” value with food intake (24-48 h) came out at 0%.
`CC[C@H](C)[C@H](NC(=O)[C@@H]1CCCN1C(=O)CNC(=O)[C@H](Cc1ccccc1)NC(=O)[C@H](CC(N)=O)NC(=O)[C@H](CC(N)=O)NC(=O)[C@H](CO)NC(=O)[C@H](CO)NC(=O)[C@H](Cc1c[nH]cn1)NC(=O)[C@H](Cc1c[nH]cn1)NC(=O)[C@H](CC(C)C)NC(=O)[C@H](Cc1ccccc1)NC(=O)[C@H](CCC(=O)O)NC(=O)[C@H](C)NC(=O)[C@H](CC(C)C)NC(=O)[C@H](CCCNC(=N)N)NC(=O)[C@H](CCC(N)=O)NC(=O)[C@@H](NC(=O)[C@H](C)NC(=O)[C@@H]1CSSC[C@H](NC(=O)[C@H](Cc2c[nH]cn2)NC(=O)CC[C@H](NC(=O)CCCCCCCCCCCCCCCCCCC(=O)O)C(=O)O)C(=O)N[C@@H](CC(N)=O)C(=O)N[C@@H]([C@@H](C)O)C(=O)N[C@@H](C)C(=O)N[C@@H]([C@@H](C)O)C(=O)N1)[C@@H](C)O)C(=O)N[C@@H](CC(C)C)C(=O)N1CCC[C@H]1C(=O)N1CCC[C@H]1C(=O)N[C@H](C(=O)N[C@@H](CC(N)=O)C(=O)N[C@H](C(=O)NCC(=O)N[C@@H](CO)C(=O)N[C@@H](CC(N)=O)C(=O)N[C@H](C(=O)N1CCC[C@H]1C(N)=O)[C@@H](C)O)C(C)C)[C@@H](C)O` [Example 84, N-alpha-[(S)-4-Carboxy-4-(19-carboxynonadecanoylamino)butyryl]-[His1,Glu14,His17,Pro37]-pramlintide] ({C20 diacid-γGlu}-HCNTATCATQRLAEFLHHSSNNFGPILPPTNVGSNTP-NH2; disulfide 2-7 (inferred); C-terminus assumed): the “ThT pH 4.0 lag time” value in data set [1] (Table 8) is listed as 25.6 h. For the same compound, in data set [1] (ThT fibrillation assay), the “ThT pH 4.0 lag time” value worked out at 25.6 h and the “ThT pH 4.0 lag time (h)” value came to 25.6 h. In addition, the “Food intake reduction 0-24 h 3 nmol/kg (%)” value with food intake (0-24 h) was found to be 68%. In the data set on food intake (24-48 h), the “Food intake reduction 24-48 h 3 nmol/kg (%)” value is recorded as 67%.
As for `CC[C@H](C)[C@H](NC(=O)[C@@H]1CCCN1C(=O)CNC(=O)[C@H](Cc1ccccc1)NC(=O)[C@H](CC(N)=O)NC(=O)[C@H](CC(N)=O)NC(=O)[C@H](CO)NC(=O)[C@H](CO)NC(=O)[C@H](Cc1c[nH]cn1)NC(=O)[C@H](Cc1c[nH]cn1)NC(=O)[C@H](CC(C)C)NC(=O)[C@H](Cc1ccccc1)NC(=O)[C@H](CCC(=O)O)NC(=O)[C@H](C)NC(=O)[C@H](CC(C)C)NC(=O)[C@H](CCCNC(=N)N)NC(=O)[C@H](CCC(N)=O)NC(=O)[C@@H](NC(=O)[C@H](C)NC(=O)[C@@H]1CSSC[C@H](NC(=O)[C@@H](N)CCCCNC(=O)CC[C@H](NC(=O)CCCCCCCCCCCCCCCCCCC(=O)O)C(=O)O)C(=O)N[C@@H](CC(N)=O)C(=O)N[C@@H]([C@@H](C)O)C(=O)N[C@@H](C)C(=O)N[C@@H]([C@@H](C)O)C(=O)N1)[C@@H](C)O)C(=O)N[C@@H](CC(C)C)C(=O)N1CCC[C@H]1C(=O)N1CCC[C@H]1C(=O)N[C@H](C(=O)N[C@@H](CC(N)=O)C(=O)N[C@H](C(=O)NCC(=O)N[C@@H](CO)C(=O)N[C@@H](Cc1c[nH]cn1)C(=O)N[C@H](C(=O)N[C@@H](Cc1ccc(O)cc1)C(N)=O)[C@@H](C)O)C(C)C)[C@@H](C)O` [Example 87, N-epsilon1-[(S)-4-Carboxy-4-(19-carboxynonadecanoylamino)butyryl]-[Glu14,His17,His35]-pramlintide] (H-K([γGlu-C20 diacid])CNTATCATQRLAEFLHHSSNNFGPILPPTNVGSHTY-NH2; disulfide 2-7 (inferred)), the “ThT pH 4.0 lag time” value in data set [1] (Table 8) turned out to be 25 h. Also, in data set [1] (ThT fibrillation assay), the “ThT pH 4.0 lag time” value is 25 h and the “ThT pH 4.0 lag time (h)” value amounted to 25 h. The “Food intake reduction 0-24 h 3 nmol/kg (%)” value in the data set with food intake (0-24 h) is recorded as 66%. Also, the “Food intake reduction 24-48 h 3 nmol/kg (%)” value in the data set on food intake (24-48 h) was 47%.

Source of the values: patent publication US8722849B2, “Polypeptides” (Novo Nordisk A/S, priority 2011, dated 2014).
